Measurements reported in patent US20250339399A1, “SUPRAMOLECULAR SELF-ASSEMBLY SYSTEM” (Beijing Creatron Institute of Pharmaceutical Research Co., …, priority 2022, published 2025).

Columns and labels:
[1] = Guest molecule concentration after incubation in initial medium without polymer (Comparative Example 1); assay type: physicochemical; settings: 37° C.
Procedure, shortened: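 Dissolved guest content measured by HPLC of centrifuged supernatants (37° C., 13000 rpm, 5 min) sampled at 0.5 h, 3 h and 6 h. Incubation was polymer-free at 37° C.±0.5° C. in buffers of pH 2.0-7.4; nominal loading was set by maximum clinical dose.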

[2] = Binary supramolecular self-assembly systems of polymer and target: guest concentration over incubation time (Comparative Example 2); assay type: physicochemical; settings: for Times that of the initial medium / Concentration of guest molecule in solution: 6 h
Protocol: Experiments were conducted according to the steps in Comparative Example 1, and quantitative analysis was carried out using the analytical method for each target to investigate the regulation ability […] stacking.

[3] = Binary (carrier), ternary and quaternary supramolecular self-assembly systems of polymer, carrier building block and target: guest concentration over incubation time (Examples 1-56); assay type: physicochemical; settings: 6 h
Protocol: pH 2.0 hydrochloric acid, pH 4.5 acetate, and pH 6.5, pH 6.8, or pH 7.4 phosphate buffer solutions were prepared. The selection of each initial medium followed the principle that the solubility in the initial medium of the selected targets (or active ingredients) should low enough, but should meet the detection sensitivity and accuracy requirements of the corresponding analytical methods. Each buffer as initial media was placed in a 50 ml test tube with a stopper, shaken in a constant temperature air shaker at 37° C.±0.5° C., with an amplitude of 200 rpm, and incubated for 1 hour. […] Samples were taken at 0.5 h, 3 h and 6 h after incubation, centrifuged at 37° C., 13000 rpm for 5 minutes, and the supernatant was diluted at least 10 times with the mobile phase under the target analyte analytical method, filtered, the initial filtrate was discarded, and the continued filtrate was used as the test solution for injection analysis. The corresponding HPLC method under each target object item in Table 8 was used to determine the content of each target substance. When the solubility of the target in the initial medium is below the quantitative limit of the analytical method, a small amount of surfactant, such as sodium dodecyl sulfate (SDS), Tween20, or Tween80, can be added appropriately.
Experiments were conducted according to the steps in Comparative Example 1, and quantitative analysis was carried out using the analytical method for each target to investigate the regulation ability of each binary supramolecular self-assembly system built from 0.5% polymer and target on guest molecules stacking.
Ternary supramolecular self-assembly systems based on different polymers, carrier building blocks, and targets were built according to the experimental scheme in Table 12, to investigate the influence of synergistic regulation of the carrier building blocks and the polymers on the stacking of target molecules, as well as the stability of the supramolecular self-assembly systems jointly built by them over incubation time. The initial medium, quantitative analysis method, pre-treatment method, and initial theoretical concentration of the target, corresponding to each target molecule in the experiment, were consistent with those in Comparative Examples 1 and 2. After a target was added to the system, the target was uniformly dispersed by ultrasonication at 37° C. for half an hour and then shaken in a 37° C. constant temperature air shaker, and samples were collected after different incubation time, i.e. 0.5 h, 1 h, 2 h, 3 h, 4 h, and 6 h.

[4] = cited from earlier work
[5] = binary system with 0.5% polymer 101, incubation 0.5 h
[6] = binary system with 0.5% polymer 101, incubation 3 h
[7] = binary system with 0.5% polymer 101, incubation 6 h
[8] = binary system with 0.5% polymer 102, incubation 0.5 h
[9] = binary system with 0.5% polymer 102, incubation 3 h
[10] = binary system with 0.5% polymer 102, incubation 6 h
[11] = binary system with 0.5% polymer 103, incubation 0.5 h
[12] = binary system with 0.5% polymer 103, incubation 3 h
[13] = binary system with 0.5% polymer 103, incubation 6 h
[14] = binary system with 0.5% polymer 104, incubation 0.5 h
[15] = binary system with 0.5% polymer 104, incubation 3 h
[16] = binary system with 0.5% polymer 104, incubation 6 h
[17] = binary system with 0.5% polymer 106, incubation 0.5 h
[18] = binary system with 0.5% polymer 106, incubation 3 h
[19] = binary system with 0.5% polymer 106, incubation 6 h
[20] = binary system with 0.5% polymer 107, incubation 0.5 h
[21] = binary system with 0.5% polymer 107, incubation 3 h
[22] = binary system with 0.5% polymer 107, incubation 6 h
[23] = system built by polymers 102H and 103E3 with carrier 302
[24] = ternary: 102H (0.25% where stated) + 301, carrier % not stated
[25] = quaternary: 0.25% 205 (102H+104) + 0.25% 313
[26] = quaternary: 0.25% 205 (102H+104) + 0.25% 318
[27] = quaternary: 204 (103E5+102H) + 301, % not stated
[28] = ternary: 0.25% 102H + 0.25% 313

Cc1cn(-c2cc(NC(=O)c3ccc(C)c(Nc4nccc(-c5cccnc5)n4)c3)cc(C(F)(F)F)c2)cn1 [Nilotinib]
Concentration of guest molecule measured after different incubated time ([1]; 0.5 h, 0.05% SDS in pH 6.8 phosphate buffer): 35.2 µg/mL
Concentration of guest molecule measured after different incubated time ([1]; 3 h, 0.05% SDS in pH 6.8 phosphate buffer): 24.2 µg/mL
Concentration of guest molecule measured after different incubated time ([1]; 6 h, 0.05% SDS in pH 6.8 phosphate buffer): 17.9 µg/mL
Concentration of the target in the solution measured after different incubation time [2, 5]: 117.0 µg/mL
Concentration of the target in the solution measured after different incubation time [2, 6]: 145.8 µg/mL
Concentration of the target in the solution measured after different incubation time [2, 7]: 149.9 µg/mL
Concentration of the target in the solution measured after different incubation time [2, 8]: 96.7 µg/mL
Concentration of the target in the solution measured after different incubation time [2, 9]: 188.9 µg/mL
Concentration of the target in the solution measured after different incubation time [2, 10]: 189.9 µg/mL
Concentration of the target in the solution measured after different incubation time [2, 11]: 125.2 µg/mL
Concentration of the target in the solution measured after different incubation time [2, 12]: 159.3 µg/mL
Concentration of the target in the solution measured after different incubation time [2, 13]: 181.5 µg/mL
Concentration of the target in the solution measured after different incubation time [2, 14]: 77.5 µg/mL
Concentration of the target in the solution measured after different incubation time [2, 15]: 84.9 µg/mL
Concentration of the target in the solution measured after different incubation time [2, 16]: 61.4 µg/mL
Concentration of the target in the solution measured after different incubation time [2, 17]: 121.2 µg/mL
Concentration of the target in the solution measured after different incubation time [2, 18]: 81.8 µg/mL
Concentration of the target in the solution measured after different incubation time [2, 19]: 50.0 µg/mL
Concentration of the target in the solution measured after different incubation time [2, 20]: 107.2 µg/mL
Concentration of the target in the solution measured after different incubation time [2, 21]: 62.3 µg/mL
Concentration of the target in the solution measured after different incubation time [2, 22]: 52.3 µg/mL
Times that of the initial medium ([2]; binary: 0.5% 102H): about 8.5 times
Times that of the initial medium ([2]; binary: 0.5% 104): ~2.7 times
Concentration of guest molecule in solution [3, 23]: 391.1 µg/mL
Encapsulation rate for the guest molecule [3, 23]: 97.8%
Concentration of guest molecule in solution [3, 24]: 227.2 µg/mL
Times that of the initial medium [3, 24]: 10 times
Concentration of guest molecule in solution ([3]; ternary: 102H + 310, carrier % not stated): 317.6 µg/mL
Concentration of guest molecule in solution ([3]; ternary: 102H + 313, carrier % not given): 365.2 µg/mL
Concentration of guest molecule in solution ([3]; ternary: 102M + 310): 344.0 µg/mL
Concentration of guest molecule in solution ([3]; ternary: 102M + 313): 328.9 µg/mL
Dissociation constant ([4]; basic drug): 5.92
LogD7.4 or Log P [4]: 5.35
Log D6.8 ([4]; pH 6.8): 5.27

CC(=O)c1c(C)c2cnc(Nc3ccc(N4CCNCC4)cn3)nc2n(C2CCCC2)c1=O [Palbociclib]
Concentration of guest molecule measured after different incubated time ([1]; 0.5 h, pH 6.8 phosphate buffer): 140.4 µg/mL
Concentration of guest molecule measured after different incubated time ([1]; 3 h, pH 6.8 phosphate buffer): 34.8 µg/mL
Concentration of guest molecule measured after different incubated time ([1]; 6 h, pH 6.8 phosphate buffer): 31.6 µg/mL
Concentration of the target in the solution measured after different incubation time [2, 5]: 163.1 µg/mL
Concentration of the target in the solution measured after different incubation time [2, 6]: 89.0 µg/mL
Concentration of the target in the solution measured after different incubation time [2, 7]: 85.5 µg/mL
Concentration of the target in the solution measured after different incubation time [2, 8]: 205.7 µg/mL
Concentration of the target in the solution measured after different incubation time [2, 9]: 167.0 µg/mL
Concentration of the target in the solution measured after different incubation time [2, 10]: 154.0 µg/mL
Concentration of the target in the solution measured after different incubation time [2, 11]: 259.9 µg/mL
Concentration of the target in the solution measured after different incubation time [2, 12]: 126.5 µg/mL
Concentration of the target in the solution measured after different incubation time [2, 13]: 109.6 µg/mL
Concentration of the target in the solution measured after different incubation time [2, 14]: 105.4 µg/mL
Concentration of the target in the solution measured after different incubation time [2, 15]: 156.4 µg/mL
Concentration of the target in the solution measured after different incubation time [2, 16]: 144.8 µg/mL
Concentration of the target in the solution measured after different incubation time [2, 17]: 131.3 µg/mL
Concentration of the target in the solution measured after different incubation time [2, 18]: 60.3 µg/mL
Concentration of the target in the solution measured after different incubation time [2, 19]: 58.2 µg/mL
Concentration of the target in the solution measured after different incubation time [2, 20]: 103.5 µg/mL
Concentration of the target in the solution measured after different incubation time [2, 21]: 32.0 µg/mL
Concentration of the target in the solution measured after different incubation time [2, 22]: 27.0 µg/mL
Concentration of guest molecule in solution ([2]; binary: 0.5% 102H): 154.0 µg/mL
Times that of the initial medium ([2]; binary: 0.5% 102H): 4.9 times
Concentration of guest molecule in solution ([2]; binary: 0.5% 103E5): 105.4 µg/mL
Times that of the initial medium ([2]; binary: 0.5% 103E5): 3.3 times
Concentration of guest molecule in solution ([2]; binary: 0.5% 104): 144.8 µg/mL
Times that of the initial medium ([2]; binary: 0.5% 104): 4.6 times
Increase of the concentration of the guest molecule ([3]; 0.25% 102H, 1.0% 313 compared to the 0.25% 313 system): 16.4%
Concentration of guest molecule in solution ([3]; binary: 0.25% 301): 77.0 µg/mL
Concentration of guest molecule in solution ([3]; binary: 0.25% 302): 34.2 µg/mL
Concentration of guest molecule in solution ([3]; binary: 0.25% 310): 279.8 µg/mL
Concentration of guest molecule in solution ([3]; binary: 0.25% 313): 70.0 µg/mL
Concentration of guest molecule in solution ([3]; binary: 0.25% 318): 60.5 µg/mL
Concentration of guest molecule in solution [3, 25]: 250.7 µg/mL
Times that of the initial medium [3, 25]: 7.9 times
Concentration of guest molecule in solution [3, 26]: 257.8 µg/mL
Times that of the initial medium [3, 26]: 8.2 times
Concentration of guest molecule in solution [3, 27]: 250.4 µg/mL
Times that of the initial medium [3, 27]: 7.9 times
Concentration of guest molecule in solution ([3]; ternary: 0.25% 102H + 0.1% 313): 191.5 µg/mL
Times that of the initial medium ([3]; ternary: 0.25% 102H + 0.1% 313): 6.1 times
Concentration of guest molecule in solution ([3]; ternary: 0.25% 102H + 0.25% 302): 195.5 µg/mL
Concentration of guest molecule in solution ([3]; ternary: 0.25% 102H + 0.25% 310): 44.8 µg/mL
Concentration of guest molecule in solution [3, 28]: 361.6 µg/mL
Times that of the initial medium [3, 28]: 11.4 times
Concentration of guest molecule in solution ([3]; ternary: 0.25% 102H + 0.25% 318): 181.8 µg/mL
Concentration of guest molecule in solution ([3]; ternary: 0.25% 102H + 1.0% 313): 420.8 µg/mL
Times that of the initial medium ([3]; ternary: 0.25% 102H + 1.0% 313): 13.3 times
Concentration of guest molecule in solution ([3]; ternary: 0.25% 103E5 + 0.25% 302): 102.3 µg/mL
Concentration of guest molecule in solution ([3]; ternary: 0.25% 104 + 0.25% 302): 138.3 µg/mL
Concentration of guest molecule in solution [3, 24]: 126.9 µg/mL
Times that of the initial medium [3, 24]: 4.0 times
LogD7.4 or Log P [4]: 1.31
